Reference: patent US7868014B2, “1-(hetero)aryl-3-amino-pyrrolidine derivatives for use as mGluR3 antagonists” (Eli Lilly and Company, priority 2004, dated 2011)
Structures can show the parent of a compound that is named as a salt.

Target: T1, human mGluR3 (Homo sapiens, UniProt Q14832)
T1 construct: expressed in transfected cells; host or cells: AV12 cells (adenovirus-transformed Syrian hamster cell line) stably expressing RGT and GLT, co-transfected with Galpha15
Test: Antagonism of glutamate-induced increase in intracellular calcium (FLIPR) in mGluR3-expressing AV12 cells
Assay type: cell-based
Conditions: antagonism of 50 μM glutamate-induced calcium response, AV12 cells expressing human mGluR3 and Gα15, Fluo-3AM
Experimental: Antagonism of Glutamate-Induced Increase in Intracellular Calcium with a mGluRs Expressing Cell Line
Introduce human mGluR3 and the promiscuous G-protein, Galpha15 (Gα15) into AV12 cells (an adenovirus-transformed Syrian hamster cell line) that stably express RGT (Rat Glutamate Transporter) and GLT (Glutamate Like Transporter). Maintain the expression of these four exogenous genes by culturing the cells in DMEM (Gibco, 11960-051) supplemented with 5% dialyzed fetal bovine serum, 2 mM glutamine, 1 mM sodium pyruvate, 10 mM HEPES, 100 μg/mL G418, 1 μg/mL puromycin, 1 μg/mL blastocidin, and 100 μg/mL zeocin. Passage confluent cultures weekly. The expression of Gα15 allows the change of the signaling pathway of the mGlu3 receptor to one that can be easily monitored through the release of intracellular calcium before and after the addition of drugs on a Fluorometric Imaging Plate Reader (i.e. FLIPR, Molecular Devices). Use the following buffers throughout as the Assay Buffer: HBSS (BioWhittaker, 10-527F) supplemented with 20 mM HEPES (Biowhittaker, 17-737E) at pH 7.4. Prepare a stock solution of 4 mM Fluo-3AM (Molecular Probes, F-1241), a calcium sensitive dye by adding 2.21 mL of 20% pluronate in DMSO to a vial containing 10 mg of Fluo-3AM. Sonicate the solution for 30 minutes to facilitate solubilization of the Fluo-3AM and then store at −20° C. Prepare the working solution of 8 μM Fluo-3AM by diluting the stock Fluo-3AM (4 mM) 500-fold into Assay Buffer. Harvest cells 24 h prior to assay using Hank's based cell dissociation solution (Specialty Media, a division of Cell & Molecular Technologies, S-004-B) and plate at a density of 50,000 cells per well in a 96-well poly-D-lysine treated black walled, clear bottom plate (Becton Dickinson, 356640). Incubate cells with 8 μM Fluo-3AM (50 μL per well) for 2 hours at 25° C. Following the dye-loading of the cells, remove the 8 μM Fluo-3AM and replace with Assay Buffer pre-warmed to 37° C. (50 μL per well). Ready the cells for assay on the FLIPR. Set the stage of the FLIPR to 34.5° C. prior to initiation of the assay. Perform a two addition FLIPR assay. Pre-warm the reagents for both additions (compounds and glutamate) to 37° C. prior to initiation of the assay. Add the test compound to the cell plate (50 μL per well) after taking an initial fluorescent read of the cell plate for 10 seconds. Test compounds in a 10 point concentration response curve starting at a final concentration on the cells of 12.5 μM with 3-fold dilutions in Assay Buffer/1.25% DMSO. Collect data every second for the first 30 seconds and then every 3 seconds until the second addition made at 2 minutes. Perform the second addition of 100 μM glutamate in Assay Buffer (100 μL per well for a final glutamate concentration of 50 μM on the cells) 2 minutes after the addition of compound. Collect the second addition data every second for 30 seconds and then every 3 seconds until the end of the run at total time of 3.25 minutes. Measure the response as maximal peak height in Relative Fluorescent Units (RFUs). Define the assay window as the maximal response obtained by 50 μM glutamate minus the response obtained by buffer alone. Express the results as a percent of the assay window.

T1 sequence (Q14832 23-879): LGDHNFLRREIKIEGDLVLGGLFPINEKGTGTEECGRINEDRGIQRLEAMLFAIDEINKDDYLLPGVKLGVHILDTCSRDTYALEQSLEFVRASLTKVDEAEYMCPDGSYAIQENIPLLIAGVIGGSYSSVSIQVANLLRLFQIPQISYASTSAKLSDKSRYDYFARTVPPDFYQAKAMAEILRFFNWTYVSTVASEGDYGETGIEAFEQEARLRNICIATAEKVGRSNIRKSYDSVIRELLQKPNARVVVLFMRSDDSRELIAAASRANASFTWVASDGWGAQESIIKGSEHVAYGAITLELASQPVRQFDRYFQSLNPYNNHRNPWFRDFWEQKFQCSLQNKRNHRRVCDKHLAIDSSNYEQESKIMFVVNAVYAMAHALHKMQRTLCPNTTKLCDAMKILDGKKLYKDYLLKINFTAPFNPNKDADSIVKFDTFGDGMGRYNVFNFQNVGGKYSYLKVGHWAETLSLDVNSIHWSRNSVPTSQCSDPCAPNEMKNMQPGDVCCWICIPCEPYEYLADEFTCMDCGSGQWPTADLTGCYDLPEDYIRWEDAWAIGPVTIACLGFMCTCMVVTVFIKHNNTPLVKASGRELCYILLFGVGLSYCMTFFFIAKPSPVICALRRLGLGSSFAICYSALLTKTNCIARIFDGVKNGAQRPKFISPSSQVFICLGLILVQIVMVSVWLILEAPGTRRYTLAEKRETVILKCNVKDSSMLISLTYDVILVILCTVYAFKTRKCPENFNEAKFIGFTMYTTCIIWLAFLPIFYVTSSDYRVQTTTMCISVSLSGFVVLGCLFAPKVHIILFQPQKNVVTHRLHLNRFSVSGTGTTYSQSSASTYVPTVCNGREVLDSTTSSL

Row | SMILES | IC50 [nM]
1 | O=[N+]([O-])c1ccc(N2CC[C@H](NCc3ccc(Cl)cc3Cl)C2)nc1 [Example 1, (S)-(2,4-Dichlorobenzyl)-[1-(5-nitropyridin-2-yl)-pyrrolidin-3-yl]-amine] | 191
2 | CC(=O)c1ccc(N2CC[C@H](NCc3ccc(Cl)cc3Cl)C2)s1 [Example 6, (S)-1-{5-[3-(2,4-Dichlorobenzylamino)-pyrrolidin-1-yl]-thiophen-2-yl}-ethanone] | 3910
3 | Clc1ccc(CN[C@H]2CCN(c3ccc(I)cn3)C2)c(Cl)c1 [Example 23, (S)-(2,4-Dichlorobenzyl)-[1-(5-iodopyridin-2-yl)-pyrrolidin-3-yl]-amine hydrochloride] | 607
4 | Clc1ccc(CN[C@H]2CCN(c3ncc(Br)cn3)C2)c(Cl)c1 [Example 28, (S)-[1-(5-Bromopyrimidin-2-yl)-pyrrolidin-3-yl]-(2,4-dichlorobenzyl)-amine] | 340
5 | Fc1ccc(N2CC[C@H](NCc3ccccc3I)C2)cn1 [Example 59, (S)-[1-(6-Fluoropyridin-3-yl)-pyrrolidin-3-yl]-(2-iodobenzyl)-amine hydrochloride] | 5780
6 | C#Cc1ccc(N2CC[C@H](NCc3ccc(Cl)cc3Cl)C2)nc1 [Example 87, (S)-(2,4-Dichlorobenzyl)-[1-(5-ethynylpyridin-2-yl)-pyrrolidin-3-yl]-amine] | 143
7 | FC1CN(c2ncc(Br)cn2)CC1NCc1ccc(Cl)cc1Cl (centres unmarked) [Example 101, [1-(5 -Bromopyrimidin-2-yl)-4-fluoropyrrolidin-3-yl]-(2,4-dichlorobenzyl)-amine hydrochloride] | 4930
8 | Clc1ccc(CN[C@H]2CCN(c3ccc(-c4ccccc4)cn3)C2)c(Cl)c1 [Example 108, (S)-(2,4-Dichlorobenzyl)-[1-(5-phenylpyridin-2-yl)-pyrrolidin-3-yl]-amine] | 2270
9 | FC(F)(F)c1ccc(CN[C@H]2CCN(c3ncc(Br)cn3)C2)c(Cl)c1 [Example 112, (3S)-[1-(5-Bromopyrimidin-2-yl)-pyrrolidin-3-yl]-(2-chloro-4-trifluoromethylbenzyl)-amine] | 1650
10 | O=C1CN(c2ncc(Br)cn2)CC1NCc1ccc(Cl)cc1Cl (centres unmarked) [Example 121, 1-(5-Bromopyrimidin-2-yl)-4-(2,4-dichlorobenzylamino)-pyrrolidin-3-one] | 1680
11 | N#Cc1cnc(N2CC[C@H](NCc3ccc(Cl)cc3Cl)C2)nc1 [Example 123, (S)-2-[3-(2,4-Dichlorobenzylamino)-pyrrolidin-1-yl]-pyrimidine-5-carbonitrile] | 1180
12 | Clc1cnc(N2CC[C@H](NCc3ccc(Cl)cc3Cl)C2)nc1 [Example 134, (S)-[1-(5-Chloropyrimidin-2-yl)-pyrrolidin-3-yl]-(2,4-dichlorobenzyl)-amine] | 77

System: male Sprague-Dawley rats
Test: Rat dural plasma protein extravasation (PPE) model
Assay type: in vivo
Conditions: i.v. (tail-vein injection), 60 min before trigeminal ganglion stimulation; dose that gives an extravasation ratio of approximately 1
Experimental: Rat Dural Plasma Protein Extravasation (PPE) Model
Prepare 100 μg/ml stock solution of test compound in a DMSO/saline (20%/80% v/v) solution and make subsequent dilutions with saline. Dose male Sprague-Dawley rats from Harlan Laboratories (250-350 g) with test compound or saline vehicle by oral gavage (2 mL/kg) or intravenous tail-vein injection (1 mL/kg) 45 minutes prior to administration of anesthesia and placement in a stereotaxic frame for implantation of stimulating electrodes. The rats dosed via the oral route are fasted overnight prior to dosing. Fifteen minutes prior to trigeminal ganglion stimulation, the rats are anesthetized with Nembutal (60 mg/kg, ip.) and placed in a stereotaxic frame (David Kopf Instruments) with the incisor bar set at −2.5 mm. […]
A fluorescence microscope (Zeiss) equipped with a grating monochromator and a spectrophotometer is used to quantify the amount of FITC-BSA dye in each dural sample. […] This facilitates the computer-controlled movement of the stage, with fluorescence measurements at 25 points (500 μm steps) on each dural sample. […] The extravasation ratio (i.e. the ratio of the amount of extravasation in the dura from the stimulated side compared to the unstimulated side) is calculated. […]

Row | SMILES | ID100 (μg/mL) i.v. [µg/mL]
13 | Clc1ccc(CN[C@H]2CCN(c3ncc(Br)cn3)C2)c(Cl)c1 [Example 28, (S)-[1-(5-Bromopyrimidin-2-yl)-pyrrolidin-3-yl]-(2,4-dichlorobenzyl)-amine] | 3

Same assay, conditions: p.o. (oral gavage), 60 min before trigeminal ganglion stimulation; dose that gives an extravasation ratio of approximately 1

Row | SMILES | ID100 (μg/mL) p.o. [µg/mL]
14 | Clc1ccc(CN[C@H]2CCN(c3ncc(Br)cn3)C2)c(Cl)c1 [Example 28, (S)-[1-(5-Bromopyrimidin-2-yl)-pyrrolidin-3-yl]-(2,4-dichlorobenzyl)-amine] | 3
